Here are results for 35 compounds from patent publication US20210101881A1 (Ancureall Pharmaceutical (Shanghai) Co., Ltd., priority 2018, published 2021).

Read-outs that look alike come from different tables or passages of the source.

In the assay the test system is MOLM13 cells. Briefly: Growth inhibition of CDK9-positive cell line MOLM13 in vitro (CCK8/MTT assay). The format is cell-based, human.
The mark [1] stands for this setting: Homo sapiens, MOLM-13, MOLM13 cells, cultured 3 to 6 days, CCK8, read-out: IC50 of the compound for inhibiting cell growth, MOLM13 cells.

Usually IC50 stands for the point on the concentration scale where inhibition reaches its midpoint. Consider `COc1cc(Nc2ncc(F)c(-n3cc(C(N)=O)c4ccccc43)n2)ccc1N(C)CCN1CCCC1` [Compound 98, 1-(5-fluoro-2-{3-methoxy-4-[methyl-(2-pyrrolidin-1-yl-ethyl)-amino]-phenylamino}-pyrimidin-4-yl)-1H-indole-3-carboxamide], for which, under setting [1], the IC50 was 1 to 10 nM. Still for that read-out and setting: to `COc1cc(Nc2ncc(Cl)c(-n3cc(C(N)=O)c4ccccc43)n2)ccc1N(C)CCN1CCCC1` [Compound 99, 1-(5-chloro-2-{3-methoxy-4-[methyl-(2-pyrrolidin-1-yl-ethyl)-amino]-phenylamino}-pyrimidin-4-yl)-1H-indole-3-carboxamide] belongs 1 to 10 nM; to `COc1cc(Nc2ncc(C)c(-n3cc(C(N)=O)c4ccccc43)n2)ccc1N(C)CCN1CCCC1` [Compound 100, 1-(2-{3-methoxy-4-[methyl-(2-pyrrolidin-1-yl-ethyl)-amino]-phenylamino}-5-methyl-pyrimidin-4-yl)-1H-indole-3-carboxamide], 1 to 10 nM. As for `CNC(=O)c1cn(-c2ccnc(Nc3ccc(N4CCNCC4)cc3)n2)c2ccccc12` [Compound 101, 1-[2-(4-piperazin-1-yl-phenylamino)-pyrimidin-4-yl]-1H-indole-3-carboxmethylamide], the half-maximal inhibitory concentration (IC50) under setting [1] is 100 to 1000 nM. Same read-out and setting: to `CNC(=O)c1cn(-c2ccnc(Nc3ccc(N4CCNCC4)cc3Cl)n2)c2ccccc12` [Compound 102, 1-[2-(2-chloro-4-piperazin-1-yl-phenylamino)-pyrimidin-4-yl]-1H-indole-3-carboxmethylamide] belongs over 1000 nM. As to `CNC(=O)c1cn(-c2ccnc(Nc3ccc(N4CCNCC4)c(Cl)c3)n2)c2ccccc12` [Compound 103, 1-[2-(3-chloro-4-piperazin-1-yl-phenylamino)-pyrimidin-4-yl]-1H-indole-3-carboxmethylamide], the IC50 under setting [1] fell in the range of 100 to 1000 nM. On the same count and under the same terms, to `CNC(=O)c1cn(-c2ccnc(Nc3ccc(C4CCN(C)CC4)cc3)n2)c2ccccc12` [Compound 104, 1-{2-[4-(1-methyl-piperidin-4-yl)-phenylamino]-pyrimidin-4-yl}-1H-indole-3-carboxmethylamide] belongs 10 to 100 nM; to `CNC(=O)c1cn(-c2ccnc(Nc3ccc(C4CCNCC4)cc3)n2)c2ccccc12` [Compound 105, 1-[2-(4-piperidin-4-yl-phenylamino)-pyrimidin-4-yl]-1H-indole-3-carboxmethylamide], 10 to 100 nM. `CNC(=O)c1cn(-c2ccnc(Nc3cccc(N4CCN(C)CC4)c3)n2)c2ccccc12` [Compound 106, 1-{2-[3-(4-methyl-piperazin-1-yl)-phenylamino]-pyrimidin-4-yl}-1H-indole-3-carboxmethylamide]: the IC50 (MOLM13 cells, cultured 3 to 6 days, CCK8, read-out: IC50 of the compound for inhibiting cell growth, MOLM13 cells) fell in the range of 10 to 100 nM.

For `CNC(=O)c1cn(-c2ccnc(Nc3cccc(N4CCNCC4)c3)n2)c2ccccc12` [Compound 107, 1-[2-(3-piperazin-1-yl-phenylamino)-pyrimidin-4-yl]-1H-indole-3-carboxmethylamide], the 50% inhibitory concentration (IC50) under setting [1] lay in the range of 10 to 100 nM. Same read-out and setting: to `CNC(=O)c1cn(-c2ccnc(Nc3ccc(S(N)(=O)=O)cc3)n2)c2ccccc12` [Compound 108, 1-[2-(4-sulfamoyl-phenylamino)-pyrimidin-4-yl]-1H-indole-3-carboxmethylamide] belongs over 1000 nM; to `CN(C)CCN(C)c1cccc(Nc2nccc(-n3cc(C(N)=O)c4ccccc43)n2)c1` [Compound 110, 1-(2-{3-[(2-dimethylamino-ethyl)-methyl-amino]-phenylamino}-pyrimidin-4-yl)-1H-indole-3-carboxamide], 1 to 10 nM. On the same count and under the same terms, then `NC(=O)c1cn(-c2ccnc(Nc3cccc(N4CCNCC4)c3)n2)c2ccccc12` [Compound 111, 1-[2-(3-piperazin-1-yl-phenylamino)-pyrimidin-4-yl]-1H-indole-3-carboxamide], with 1 to 10 nM; and `CN1CCCN(c2cccc(Nc3nccc(-n4cc(C(N)=O)c5ccccc54)n3)c2)CC1` [Compound 112, 1-{2-[3-(4-methyl-[1,4]homopiperazin-1-yl)-phenylamino]-pyrimidin-4-yl}-1H-indole-3-carboxamide], with 1 to 10 nM.

As for `CN1CCN(c2cccc(Nc3nccc(-n4cc(C(N)=O)c5ccccc54)n3)c2)CC1` [Compound 113, 1-{2-[3-(4-methyl-piperazin-1-yl)-phenylamino]-pyrimidin-4-yl}-1H-indole-3-carboxamide], under setting [1], the 50% inhibitory concentration (IC50) is under 1 nM. The same measure, in the same setting: then `CN1CCN(c2cc(F)cc(Nc3nccc(-n4cc(C(N)=O)c5ccccc54)n3)c2)CC1` [Compound 114, 1-{2-[3-fluoro-5-(4-methyl-piperazin-1-yl)-phenylamino]-pyrimidin-4-yl}-1H-indole-3-carboxamide], with 1 to 10 nM; and `CN1CCN(c2cc(Nc3ncc(F)c(-n4cc(C(N)=O)c5ccccc54)n3)ccc2F)CC1` [Compound 116, 1-{5-fluoro-2-[4-fluoro-3-(4-methyl-piperazin-1-yl)-phenylamino]-pyrimidin-4-yl}-1H-indole-3-carboxamide], with 10 to 100 nM. Still for that read-out and setting: to `Cc1ccc(Nc2ncc(F)c(-n3cc(C(N)=O)c4ccccc43)n2)cc1N1CCN(C)CC1` [Compound 117, 1-{5-fluoro-2-[4-methyl-3-(4-methyl-piperazin-1-yl)-phenylamino]-pyrimidin-4-yl}-1H-indole-3-carboxamide] belongs 10 to 100 nM. For `CN1CCN(c2cccc(Nc3ncc(Cl)c(-n4cc(C(N)=O)c5ccccc54)n3)c2)CC1` [Compound 118, 1-{5-chloro-2-[3-(4-methyl-piperazin-1-yl)-phenylamino]-pyrimidin-4-yl}-1H-indole-3-carboxamide], the IC50 (Homo sapiens, MOLM-13, read-out: IC50 of the compound for inhibiting cell growth, MOLM13 cells) fell in the range of 1 to 10 nM. With `CN1CCN(c2cc(Nc3ncc(Cl)c(-n4cc(C(N)=O)c5ccccc54)n3)ccc2F)CC1` [Compound 119, 1-{5-chloro-2-[4-fluoro-3-(4-methyl-piperazin-1-yl)-phenylamino]-pyrimidin-4-yl}-1H-indole-3-carboxamide], under setting [1], the concentration for half-maximal inhibition (IC50) was in the range of 10 to 100 nM.

For `CN1CCN(c2cc(Nc3ncc(Cl)c(-n4cc(C(N)=O)c5ccccc54)n3)ccc2Cl)CC1` [Compound 120, 1-{5-chloro-2-[4-chloro-3-(4-methyl-piperazin-1-yl)-phenylamino]-pyrimidin-4-yl}-1H-indole-3-carboxamide], the IC50 under setting [1] was 10 to 100 nM. On the same count and under the same terms, then `Cc1ccc(Nc2ncc(Cl)c(-n3cc(C(N)=O)c4ccccc43)n2)cc1N1CCN(C)CC1` [Compound 121, 1-{5-chloro-2-[4-methyl-3-(4-methyl-piperazin-1-yl)-phenylamino]-pyrimidin-4-yl}-1H-indole-3-carboxamide], with 10 to 100 nM; and `COc1ccc(Nc2ncc(Cl)c(-n3cc(C(N)=O)c4ccccc43)n2)cc1N1CCN(C)CC1` [Compound 122, 1-{5-chloro-2-[4-methoxy-3-(4-methyl-piperazin-1-yl)-phenylamino]-pyrimidin-4-yl}-1H-indole-3-carboxamide], with 10 to 100 nM. As for `COc1cnc(Nc2cccc(N3CCN(C)CC3)c2)nc1-n1cc(C(N)=O)c2ccccc21` [Compound 123, 1-{5-methoxy-2-[3-(4-methyl-piperazin-1-yl)-phenylamino]-pyrimidin-4-yl}-1H-indole-3-carboxamide], the 50% inhibitory concentration (IC50) under setting [1] was 1 to 10 nM. Same read-out and setting: then `Cc1cnc(Nc2cccc(N3CCN(C)CC3)c2)nc1-n1cc(C(N)=O)c2ccccc21` [Compound 124, 1-{5-methyl-2-[3-(4-methyl-piperazin-1-yl)-phenylamino]-pyrimidin-4-yl}-1H-indole-3-carboxamide], with 1 to 10 nM; and `COCCN1CCN(c2cccc(Nc3nccc(-n4cc(C(N)=O)c5ccccc54)n3)c2)CC1` [Compound 126, 1-(2-{3-[4-(2-methoxy-ethyl)-piperazin-1-yl]-phenylamino]-pyrimidin-4-yl}-1H-indole-3-carboxamide], with 1 to 10 nM.

For the compound `C=CC(=O)N1CCN(c2cccc(Nc3nccc(-n4cc(C(N)=O)c5ccccc54)n3)c2)CC1` [Compound 127, 1-{2-[3-(4-acryloyl-piperazin-1-yl)-phenylamino]-pyrimidin-4-yl}-1H-indole-3-carboxamide], the IC50 under setting [1] lay in the range of 10 to 100 nM. The same measure, in the same setting: then `CCC(=O)N1CCN(c2cccc(Nc3nccc(-n4cc(C(N)=O)c5ccccc54)n3)c2)CC1` [Compound 128, 1-{2-[3-(4-propionyl-piperazin-1-yl)-phenylamino]-pyrimidin-4-yl}-1H-indole-3-carboxamide], with 10 to 100 nM; and `CN(C)CCOc1cccc(Nc2nccc(-n3cc(C(N)=O)c4ccccc43)n2)c1` [Compound 129, 1-{2-[3-(2-dimethylamino-ethoxy)-phenylamino]-pyrimidin-4-yl}-1H-indole-3-carboxamide], with 10 to 100 nM.

For `NC(=O)c1cn(-c2ccnc(Nc3ccccn3)n2)c2ccccc12` [Compound 130, 1-[2-(pyridin-2-ylamino)-pyrimidin-4-yl]-1H-indole-3-carboxamide], under setting [1], the half-inhibitory concentration (IC50) is over 1000 nM. The same measure, in the same setting: to `COc1ccnc(Nc2nccc(-n3cc(C(N)=O)c4ccccc43)n2)c1` [Compound 131, 1-[2-(4-methoxy-pyridin-2-ylamino)-pyrimidin-4-yl]-1H-indole-3-carboxamide] belongs over 1000 nM.

`Cc1cc(C)nc(Nc2nccc(-n3cc(C(N)=O)c4ccccc43)n2)c1` [Compound 132, 1-[2-(4,6-dimethyl-pyridin-2-ylamino)-pyrimidin-4-yl]-1H-indole-3-carboxamide]: under setting [1], the IC50 is over 1000 nM. Still for that read-out and setting: then `NC(=O)c1cn(-c2ccnc(Nc3ccc(N4CCNCC4)cn3)n2)c2ccccc12` [Compound 133, 1-[2-(5-piperazin-1-yl-pyridin-2-ylamino)-pyrimidin-4-yl]-1H-indole-3-carboxamide], with over 1000 nM; and `NC(=O)c1cn(-c2nc(Nc3ccc(N4CCNCC4)cn3)ncc2Cl)c2ccccc12` [Compound 134, 1-[5-chloro-2-(5-piperazin-1-yl-pyridin-2-ylamino)-pyrimidin-4-yl]-1H-indole-3-carboxamide], with over 1000 nM. The same measure, in the same setting: then `NC(=O)c1cn(-c2ccnc(Nc3ccc(N4CCNCC4)cc3)n2)c2ncccc12` [Compound 135, 1-[2-(4-piperazin-1-yl-phenylamino)-pyrimidin-4-yl]-1H-pyrrolo[2,3-b]pyridine-3-carboxamide], with 100 to 1000 nM.
